Assay: 24 hours prior to assay, media containing 5 mM sodium butyrate were added to MDCKII cells in flasks, and cells were grown to 80-90% confluence. On assay day, cells were trypsinized and resuspended in Krebs-Henseleit Buffer (KHB), pH 7.4 at 5×10^6 […] cells/mL. Cells were preincubated for 15 min in assay plate before addition of test compound or substrate.Test compounds were serially diluted in DMSO and then spiked (2 μL) into in 0.4 mL KHB buffer containing wild-type or OCT2-transfected cells and incubated for 10 minutes. Assay was initiated with the addition of 0.1 mL of 100 μM 14C-TEA in KHB buffer (20 μM final concentration after mixing). The concentration of TEA is based on the Km. After 10 minutes of incubation, the assay mixture was quenched with addition of 0.5 mL of ice-cold 1×PBS buffer. Samples were then centrifuged at 1000 rpm for 5 min and supernatants were removed. Wash steps were repeated four times with ice-cold PBS. Finally, the cell pellets were lysed with 0.2N NaOH and let sit at room temperature for at least 30 min to ensure complete lysis.
Conditions: MDCK-II

| Structure (SMILES) | IC50 |
| --- | --- |
| O=C(NCc1cc(F)ccc1F)c1cn2c(cc1=O)C(=O)N1C3CCC(C3)C1C2 (stereo not drawn) | 450 nM |
| C[C@@H](NC(=O)c1cn2c(c(O)c1=O)C(=O)N1C(C2)O[C@@H]2CC[C@@H]1C2)c1ccc(F)cc1F (stereo partly drawn) | 610 nM |
| O=C(NCc1c(F)cc(F)cc1F)c1cn2c(c(O)c1=O)C(=O)N1C3CCC(C3)O[C@H]1C2 (stereo partly drawn) | 137 nM |

Reference: ChEMBL document CHEMBL5727772, “Substituted 3,4,5,6,8,10,14,14a-octahydro-2h-2,6-methanopyrido[1′,2′:4,5]pyrazino[2,1-b][1,3]oxazocines and methods for treating viral infections” (2020)
